Data on six compounds can be found in patent US5714666A, “Measurement of intracellular calcium using bioluminescent apoaequorin expressed in mammalian cells” (Children's Hospital of Philadelphia, priority 1995, dated 1998).

Format in all cases: cell-based
One assay deals with T1, 5-HT2 receptor (Rattus norvegicus, UniProt P14842).
T1 construct: expressed in transfected cells; host or cells: human 293 cells, transiently co-transfected with pDPaqneo3 (apoaequorin) and pDP5ht2neo3
As to the kind of experiment: Aequorin light emission assay in human 293 cells co-transfected with apoaequorin cDNA and 5-HT2 cDNA. Particulars: for Antagonist inhibition of light emission in response to serotonin: 50 μM antagonist, 30 seconds before 10 μM serotonin, FIG. 2. As for the experimental part: DNA from the apoaequorin plasmid (pDPaqneo3) and the 5-HT2 plasmid (pDPSht2neo3) were mixed in equal portions in the transfection solution immediately before transfection. Transfection was performed as described in Example 2.
(§1) Two days after the transfection, cells were washed twice with phosphate buffered saline (PBS). Cells were then harvested by ice-cold PBS and rubber policeman. After centrifugation at 1,600 r.p.m. for 5 minutes, the pellet was dissolved in Ca^++ -free AqH buffer (120 mM NaCl, 4.8 mM KCl, 1.2 mM KH2 PO4, 25 mM Hepes, 0.1% bovine serum albumin, pH 7.4) at a concentration about 10 million cells per 1 ml solution. Tubes containing cells were wrapped with aluminum foil. Coelenterazine was a generous gift from Dr. Kishi, Harvard University and Dr. Shimomura, Marine Biological Laboratory. It was stored at -70° C., dissolved in methanol immediately before use, and kept in the dark at all times. The concentration of coelenterazine was estimated by the measurement of absorbance at 434 nanometer [the molar absorptivity434 =8,900 M^-1·cm^-1; K. Hori, H. Charbonneau, R. C. Hart, M. J. Cormier, Proc. Natl. Acad. Sci. U.S.A. 74, 4285 (1977)]. Aequorin was reconstituted incubating these apoaequorin cDNA transfected cells with 10 μM coelenterazine in the dark room temperature for 30 minutes. Unincorporated coelenterazine was washed away after incubation by adding 25 ml Ca^++ -free AqH buffer to each sample and centrifugating at 1,600 r.p.m. Samples were centrifuged again and pellets of 293 cells were dissolved in Ca^++ -free AqH buffer. The final concentration of cells was approximately 10 million per 1 ml solution. For light emission measurement, 100 μl of cell sample was mixed with equal volume of appropriate reagent in a 2 ml glass tube immediately before inserted into the luminometer (Berthold Biolumat LB 9500). Counting of light emission started immediately after the glass tube insertion. The number of photons emitted during the first 30 seconds was integrated by the luminometer and shown on the screen. The time course of light emission was recorded on a chart recorder and a Mackintosh computer using the MacLab Chart/4 V3.1.3 program for further analysis.
Intracellular calcium concentration was measured as described in Example 15.

The next assay relates to human 293 cells. As to the kind of experiment: Aequorin expression assay in human 293 cells transfected with a single plasmid (pDPaqneo3, pDP5ht2neo3 or pDP3 vector). As for the experimental part:
Human 293 cells were cultured on 100 mm tissue culture dish in minimum essential medium (MEM) containing 10% charcoal treated fetal bovine serum, 2 mM L-glutamine, 100 units penicillin G sodium per ml, 100 units streptomycin sulfate per ml. DNA mediated transfection was performed when these cells grew to 70% to 80% confluence on the plates. These transfected cells were incubated in 3% CO2, 37° C. incubator overnight. Cells were replenished with fresh medium and transferred to 5% CO2, 37° C. incubator the next day [C. […] (17).
as §1, with “The concentration of coelenterazine was estimated by the measurement of absorbance at 434 nanometer [the molar absorptivity434 =8,900 M^-1·cm^-1; K. Hori, H. Charbonneau, R. C. Hart, M. J. Cormier, Proc. Natl. Acad. Sci. U.S.A. 74, 4285 (1977)].” left out

Assay [1] relates to mouse primary neuron culture. As to the kind of experiment: Photon emission of primary neuron cultures from apoaequorin transgenic mice. As for the experimental part: A transgenic mouse was mated with non-transgenic mouse B6XSJLF1 female mouse. The whole brains were removed from 19 day old mouse embryos and used to make primary neuronal cultures and incubated in minimum essential medium containing 500 μg genticin per ml. After ten days, cells were removed from plates, mixed with colenterazine and tested for aequorin expression using an expression assay.
Embryos resulting from mating transgenic mouse no.
Thereafter 10 μl (1 mg/ml PBS) Br-A23187 and 0.5 mM CaCl2 were added to the cell culture. The drug Br-A23187 opens calcium channels.

T1 sequence (P14842 whole entry): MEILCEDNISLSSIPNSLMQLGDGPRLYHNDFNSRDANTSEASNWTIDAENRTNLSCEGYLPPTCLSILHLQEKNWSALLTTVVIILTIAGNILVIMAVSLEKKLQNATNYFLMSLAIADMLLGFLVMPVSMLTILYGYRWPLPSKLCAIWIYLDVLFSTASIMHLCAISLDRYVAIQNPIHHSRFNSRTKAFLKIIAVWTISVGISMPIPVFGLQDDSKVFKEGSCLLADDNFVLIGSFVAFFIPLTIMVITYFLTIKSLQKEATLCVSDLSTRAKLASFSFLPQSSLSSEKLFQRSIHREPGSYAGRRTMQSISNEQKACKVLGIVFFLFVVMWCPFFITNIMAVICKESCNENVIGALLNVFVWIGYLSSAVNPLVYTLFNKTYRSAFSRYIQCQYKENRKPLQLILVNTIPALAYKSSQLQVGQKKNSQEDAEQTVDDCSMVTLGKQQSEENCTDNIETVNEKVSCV

In the case of `O=C(c1ccc(F)cc1)C1CCN(CCn2c(=O)[nH]c3ccccc3c2=O)CC1` [ketanserin], the “Antagonist inhibition of light emission in response to serotonin” value on 5-HT2 receptor is recorded as “inhibited”.
On the same count and under the same terms, then `CN(C)CCCSc1ccccc1NC(=O)/C=C/c1ccccc1` [cinanserin], with “inhibited”.
For `NCCc1c[nH]c2ccc(O)cc12` [serotonin], on 5-HT2 receptor (cells co-transfected with pDPaqneo3 and pDP5ht2neo3), the “Photon emission upon addition of serotonin” value is “dramatic rise in photon emission”. In addition, the Detected photons is recorded as 79,840 ± 3,342 photons at 5-HT2 receptor (cells transfected with pDPaqneo3 & pDP5ht2neo3, 500 nM, first 30 seconds); 1,599 photons in the assay on human 293 cells (cells transfected with pDP3 vector only, 500 nM); 1,308 ± 339 photons in the assay with human 293 cells (cells transfected with pDP5ht2neo3 only, 500 nM); 6,150 photons in the assay with human 293 cells (cells transfected with pDPaqneo3 only, 500 nM). Besides, the “Photon emissions per cell” value on 5-HT2 receptor (saturating concentration (500 μM)) is listed as at most 40 photons per cell. Further, the “Photon emission upon serotonin treatment” value with human 293 cells (cells transfected with pDPaqneo3 only, pDP5ht2neo3 only or pDP3 vector only) is listed as “no increase of photo emission”.
With `O=C(O)CN(CCN(CC(=O)O)CC(=O)O)CC(=O)O` [EDTA], the “Effect on Ca++ induced photon emission” value in the assay with human 293 cells (EDTA added to buffer, pDPaqneo3-transfected cells (data not shown)) is reported as “prevented the increase in photon emission”.
Turning to Br-A23187, the “Photon emission (excitotoxicity)” value was “increased excitotoxicity” in assay [1] (10 μl (1 mg/ml PBS) Br-A23187 with 0.5 mM CaCl2, culture from transgenic mouse no. 20, FIG. 6A); “increased excitotoxicity” in assay [1] (Br-A23187 with 0.5 mM CaCl2 and 50 mM EGTA, culture from transgenic mouse no. 20, FIG. 6B).
In the case of `[Ca+2].[Cl-].[Cl-]` [Ca^++, CaCl2], the Detected photons in the assay with human 293 cells (cells transfected with pDP3 vector only, 50 nM Ca++) was 1,607 photons; in the assay with human 293 cells (cells transfected with pDP5ht2neo3 only, 50 nM Ca++), 1,346 ± 167 photons; in the assay on human 293 cells (cells transfected with pDPaqneo3 only, 50 nM Ca++), 293,209 photons. In addition, in the assay with human 293 cells (cells transfected with pDPaqneo3 and incubated with coelenterazine cofactor), the “Photons detected upon addition of Ca++” value is “rapid and dramatic increase in the photons detected”. Moreover, in the assay on human 293 cells (cells transfected with plasmids not containing apoaequorin cDNA and untransfected cells), the “Emission of photons upon addition of Ca++” value was “no rise in the emission of photons”. Further, in the assay on human 293 cells (pDPaqneo3 transfected cells not incubated with coelenterazine cofactor), the “Light emission upon addition of Ca++” value was “no increase of light emission”. For the same compound, the “Photon emission (excitotoxicity)” value in assay [1] (100 μl of 100 mM CaCl2, control non-transgenic neuronal culture no. 6, FIG. 5B) is recorded as “no excitotoxic effect”; in assay [1] (100 μl of 100 mM CaCl2, culture from transgenic mouse no. 2, FIG. 5A), “increase in cell excitotoxicity”.
